This test has as its system murine neural precursor cells (neurosphere cultures). As to the kind of experiment: HTS of LOPAC library against secondary neurosphere cultures, MTT proliferation assay at 3 μM, day 7 (z score, P value). Format: cell-based, mouse. In general terms: Formazan colour is commonly taken as a measure of viable cells.
[1] abbreviates: LOPAC library screen, 3 μM, MTT, secondary neurosphere cultures, day 7.
[2] abbreviates: LOPAC primary screen, neurosphere MTT proliferation, 3 μM, day 7.
[3] abbreviates: yes/no: significantly inhibited neurosphere proliferation (P<0.01) in the primary screen.
The mark [4] stands for this setting: LOPAC library screen, 3 μM, MTT, neurosphere cultures.
Setting [5] is: LOPAC screen, neurosphere MTT proliferation, 3 μM, day 7.
The mark [6] stands for this setting: yes/no: significantly inhibited neurosphere proliferation (P<0.01) in primary screen.
[7] abbreviates: LOPAC library screen at 3 μM, secondary neurosphere cultures, MTT.

Results on 35 compounds are retold here after US8058243B2, “Method for treating a brain cancer with ifenprodil” (HSC Research and Development Limited Partnership, priority 2006, dated 2011).

Structures can show the parent of a compound that is named as a salt. Where two headings read alike, the source gives them in different places.

On to `CC(C)N(CCC(C(N)=O)(c1ccccc1)c1ccccn1)C(C)C` (centres unmarked) [Disopyramide], for which, under setting [1], the “Z Score” value is reported as −4.179. The same compound gave a Z score under setting [2] of −4.179. The Activity entry under setting [3] is listed as “yes”.
Consider `CC(CCc1ccc(O)cc1)NCCc1ccc(O)c(O)c1` (centres unmarked) [Dobutamine hydrochloride], for which the “Z Score” value under setting [4] came to 0.3185. Under setting [5], this compound yielded a Z score of 0.319. Also, under setting [6], the Activity entry is recorded as “no”.
With `O=c1[nH]c2ccccc2n1CCCN1CCC(n2c(=O)[nH]c3cc(Cl)ccc32)CC1` [Domperidone], the Activity result is “no”. The “Z Score” value under setting [1] is given as −1.525. Further, under setting [2], the Z score is on record as −1.525.
Take `Cl.NCCc1ccc(O)c(O)c1` [Dopamine hydrochloride]: the Activity result is given as “no”, the “Z Score” value turned out to be 1.352 and the Z score was 1.352.
Consider `COc1cc2nc(N3CCN(C(=O)C4COc5ccccc5O4)CC3)nc(N)c2cc1OC` (centres unmarked) [Doxazosin mesylate], for which, under setting [1], the “Z Score” value is −1.861. Also, the Z score under setting [5] is recorded as −1.861. Moreover, the Activity entry under setting [6] was “no”.
On to `CN(C)CCC=C1c2ccccc2COc2ccccc21` [Doxepin hydrochloride], for which, where the note is “168 h, 3 µM”, the “Z Score” value is given as −1.012 and the Z score is −1.012. Also, the Activity entry under setting [3] was “no”.
With `C[C@H]1c2cccc(O)c2C(=O)C2=C(O)[C@]3(O)C(=O)C(C(N)=O)=C(O)[C@@H](N(C)C)[C@@H]3[C@@H](O)[C@@H]21` [Doxycycline hydrochloride], the “Z Score” value under setting [7] was −0.5578. Under setting [5], this compound displayed a Z score of −0.558. For the same compound, the Activity result under setting [6] is listed as “no”.
Take `CN(C)CCOC(C)(c1ccccc1)c1ccccn1` (centres unmarked) [Doxylamine succinate]: the “Z Score” value (LOPAC library screen at 3 μM, MTT, secondary neurosphere cultures, screened in singlets) is given as 1.736. Further, the Z score under setting [5] came to 1.736. Besides, the Activity entry under setting [6] is “no”.
With `O=C(CCCN1CC=C(n2c(=O)[nH]c3ccccc32)CC1)c1ccc(F)cc1` [Droperidol], the Activity entry was “no”. The “Z Score” value under setting [4] was 0.6447. In addition, the Z score under setting [5] was 0.645.
Consider `COc1c2c(nc3ccccc13)OC(C(C)(O)CO)C2` (centres unmarked) [Dubinidine], for which the “Z Score” value is listed as −2.437. Under setting [2], this compound yielded a Z score of −2.437. The Activity result under setting [3] is “yes”.
For `CC(C)CC(NC(=O)C1OC1C(=O)O)C(=O)NCCCCNC(=N)N` (centres unmarked) [E-64], the “Z Score” value is listed as −1.709. Also, the Z score under setting [5] is listed as −1.709. For the same compound, under setting [6], the Activity entry is on record as “no”.
`CCCCCCCCCCCCCCCCCCOCC(COP(=O)([O-])OCC[N+](C)(C)C)OC` (centres unmarked) [ET-18-OCH3]: the “Z Score” value under setting [7] is −0.6259. In addition, the Z score under setting [5] is listed as −0.626. Further, the Activity entry under setting [6] is given as “no”.
Turning to `O=c1c2ccccc2[se]n1-c1ccccc1` [Ebselen], under setting [7], the “Z Score” value is listed as −0.2515. In addition, under setting [2], the Z score is listed as −0.251.
Turning to `CC[N+](C)(C)c1cccc(O)c1` [Edrophonium chloride], the “Z Score” value is recorded as −0.8064. This compound also returned a Z score under setting [2] of −0.806. In addition, the Activity result under setting [6] is given as “no”.
Regarding `CCC1(C2=NCCN2)Cc2ccccc2O1` (centres unmarked) [Efaroxan hydrochloride], the “Z Score” value under setting [1] is reported as −2.338. Moreover, the Z score under setting [2] is −2.338. Also, the Activity result under setting [3] is “yes”.
For `Cc1c2ccncc2c(C)c2c1[nH]c1ccccc12` [Ellipiticine], under setting [2], the Z score is on record as −8.321. For the same compound, the Activity entry (yes = significantly inhibited neurosphere proliferation (P<0.01) in the primary screen) is recorded as “yes”.
Turning to `Cc1c2ccncc2c(C)c2c1[nH]c1ccccc12` [Ellipticine], the “Z Score” value under setting [1] is −8.321.
For the compound `CC[C@H]1CN2CCc3cc(OC)c(OC)cc3[C@@H]2C[C@@H]1C[C@H]1NCCc2cc(OC)c(OC)cc21` [Emetine dihydrochloride hydrate], the Activity entry was “yes”. Moreover, under setting [1], the “Z Score” value is given as −10.63. Moreover, under setting [2], the Z score was −10.633.
Take `Cc1cc(O)c2c(c1)C(=O)c1cc(O)cc(O)c1C2=O` [Emodin]: for the setting “168 h, 3 µM”, the “Z Score” value was −0.4835 and the Z score is on record as −0.483. Further, the Activity result under setting [6] was “no”.
`O=C(O)[C@@H]1[C@H](C(=O)O)[C@H]2CC[C@@H]1O2` [Endothall]: the “Z Score” value is reported as −1.143. Besides, under setting [2], the Z score is on record as −1.143. Also, under setting [6], the Activity result is “no”.
In the case of `CSc1ccc(C(=O)c2[nH]c(=O)[nH]c2C)cc1` [Enoximone], the “Z Score” value under setting [7] is given as −0.6237. The compound further showed a Z score under setting [5] of −0.624. Also, the Activity entry under setting [6] was “no”.
Regarding `CC(C)C[C@H](NC(=O)[C@H](O)[C@H](N)Cc1ccccc1)C(=O)O` [Epibestatin hydrochloride], under setting [7], the “Z Score” value is reported as −0.7869. Further, the Z score under setting [5] is given as −0.787. Further, the Activity entry under setting [6] is reported as “no”.
Take `CC(C)[C@@]1(NC(=O)[C@@H]2C=C3c4cccc5[nH]cc(c45)C[C@H]3N(C)C2)O[C@@]2(O)[C@@H]3CCCN3C(=O)[C@H](Cc3ccccc3)N2C1=O` [Ergocristine]: the “Z Score” value amounted to 0.4078. The compound further came in with a Z score under setting [2] of 0.408. Also, the Activity result under setting [6] was “no”.
As for `C[C@]12CC[C@@H]3c4ccc(O)cc4CC[C@H]3[C@@H]1CCC2=O` [Estrone], the “Z Score” value under setting [4] amounted to 0.04081. Under setting [2], this compound yielded a Z score of 0.041.
With `CCOC(=O)c1cnc2c(cnn2CC)c1NN=C(C)C` [Etazolate hydrochloride], under “168 h, 3 µM”, the “Z Score” value is −0.2465 and the Z score was −0.247. Further, the Activity result under setting [6] is recorded as “no”.
As to `CCC1(C)CC(=O)NC1=O` (centres unmarked) [Ethosuximide], the “Z Score” value under setting [7] is −0.6124. Besides, the Z score under setting [2] is listed as −0.612. Moreover, under setting [6], the Activity result is reported as “no”.
In the case of `CCc1cccc2c3c([nH]c12)C(CC)(CC(=O)O)OCC3` (centres unmarked) [Etodolac], the “Z Score” value under setting [7] is recorded as −0.5582. The Z score under setting [5] is −0.558. Also, under setting [6], the Activity entry was “no”.
`COC(=O)c1c(C)[nH]c(C)c1C(=O)c1ccccc1Cc1ccccc1` [FPL 64176]: the “Z Score” value is −1.099. The compound further had a Z score under setting [2] of −1.099. Further, the Activity result under setting [6] was “no”.
`CCCn1c(=O)c2[nH]c(C3CCCC3)nc2n(CCCOC(=O)c2ccc(S(=O)(=O)F)cc2)c1=O` [FSCPX]: the “Z Score” value is on record as 0.7825. In addition, the Z score under setting [2] came to 0.782. Also, under setting [6], the Activity entry is on record as “no”.
`NC(N)=Nc1nc(CSCCC(N)=NS(N)(=O)=O)cs1` [Famotidine]: the Activity result is recorded as “no”. In addition, the “Z Score” value under setting [4] was 0.05489. The Z score under setting [2] stood at 0.055.
With `CC(C)=CCCC(C)=CCCC(C)=CCSc1ccccc1C(=O)O` [Farnesylthiosalicylic acid], the “Z Score” value under setting [4] came to 0.9061. The Z score under setting [2] is listed as 0.906. The Activity result under setting [6] is “no”.
Consider `NC(=O)OCC(COC(N)=O)c1ccccc1` [Felbamate], for which, under setting [7], the “Z Score” value was −0.4586. The same compound had a Z score under setting [2] of −0.459. Moreover, the Activity entry under setting [6] is on record as “no”.
`CCOC(=O)C1=C(C)NC(C)=C(C(=O)OC)C1c1cccc(Cl)c1Cl` (centres unmarked) [Felodipine]: under setting [7], the “Z Score” value was −0.9658. The same compound gave a Z score under setting [2] of −0.966.
With `CC(C)OC(=O)C(C)(C)Oc1ccc(C(=O)c2ccc(Cl)cc2)cc1` [Fenofibrate], the “Z Score” value under setting [1] is given as −2.116. Besides, the Z score under setting [2] is given as −2.116.
For `Oc1ccc(C2CNCCc3c2cc(O)c(O)c3Cl)cc1` (centres unmarked) [Fenoldopam bromide], the “Z Score” value under setting [4] turned out to be 0.05219. Under setting [2], this compound gave a Z score of 0.052. Moreover, under setting [6], the Activity result was “no”.
